Measured values taken from patent US11484529B2, “Desmethylanethole trithione derivatives for the treatment of diseases linked to mitochondrial reactive oxygen species (ROS) production” (OP2 Drugs, priority 2017, dated 2022).

Test system: MPTP-treated mice
Assay: Sub-chronic MPTP mouse model of Parkinson's disease, TH-positive neurons in the substantia nigra
Type: in vivo
Settings: AOL 5 mg/kg i.p., 11 consecutive days; p<0.01
Description: In this study, the potential neuroprotective effects of AOL were assessed by counting the number of tyrosine hydroxylase (TH)-positive neurons in the substantia nigra (SN) in the sub-chronic 1-methyl-4-phenyl-1,2,3,6-tetrahydropyridine (MPTP) mouse model of Parkinson's disease. Mice were treated with AOL (5 mg/kg; i.p.) or vehicle for 11 consecutive days. MPTP (20 mg/kg; i.p.) or saline was administered on treatment days 4-8. All mice were killed on day 12 following final administration of treatment.
For vehicle conditions, the test item was dissolved in 0.5% DMSO/0.95% Tween 20 in saline while AOL was administered intraperitoneally (i.p.) at the dose of 5 mg/kg. […]
Unbiased stereological analysis was used to estimate the number of TH-immunopositive (TH+) neurons (Mercator, Explora Nova, La Rochelle, France). The boundaries of the SN were determined by examining the size and shape of the different TH+ neuronal groups. The volume was calculated by using the formula: V=ΣS td; where ΣS is the sum of surface areas, t is the average section thickness and d is the number of slices between two consecutive sections measured. […] The following formula was used to estimate the number of TH+ neurons: N=V(SN) (ΣQ−/ΣV(dis)); where N is the estimation of cell number, V is the volume of the SN, ΣQ− is the number of cells counted in the dissectors, and ΣV(dis) is the total volume of all the dissectors. […]

COc1ccc(-c2cc(=S)ss2)cc1 [AOL, 5-(4-methoxyphenyl)-3H-1,2-dithiole-3-thione]
increase of the number of TH+ cells in the SN compared to vehicle in MPTP-treated mice: 44%
